According to patent publication USRE40387E1, “Pharmaceutical compositions, dosage forms and methods for oral administration of epothilones” (Bristol-Myers Squibb Company, priority 2001, dated 2008):

What was measured:
[1] = Pharmacokinetics in rats (intraarterial, oral, intraduodenal); type: in vivo, male Sprague Dawley rats
Experimental: (§1) Plasma samples from pharmacokinetic/pharmacodynamic studies were analyzed for the concentration of Compound (A) using an LC/MS/MS (liquid chromatography/mass spectrometry/mass spectrometry) assay with a standard curve range of 5 to 20,000 ng/mL (10 to 40,000 nM) for studies in mice and 2 to 1000 ng/mL (4 to 2000 nM) for studies in rats and dogs. In pharmacodynamic studies, concentrations of Compound (A) were determined using the LC/MS/MS assay with a standard curve range of 5 to 20,000 ng/mL (10 to 40,000 nM) in mouse plasma. The LC/MS/MS assay was also used to determine the concentrations of Compound (B), a degradation product of Compound (A) formed in the stock/dosing solution or in vivo, in rat and dog plasma. The structure of Compound (B) is: [drawing 9]
Compound (A) was given as a single intraarterial (2 mg/kg; 10 min infusion), oral (8 mg/kg), and intraduodenal (8 mg/kg) dose to fasted male Sprague Dawley rats (n×3-6 per group). All dosing solutions were prepared in 20% ethanol. Plasma samples were obtained over a period of 24 h after dosing and the concentration of Compound (A) was determined using the LC/MS/MS assay.

[2] = Stability of liquid formulation in 80:20 propylene glycol:ethanol; type: physicochemical; details: for can be stored for up to: 2.5 mg/mL to 12.5 mg/mL in 80:20 propylene glycol:ethanol
Experimental: The stability of compound (A) in 80:20 propylene glycol:ethanol was evaluated by reconstituting 25 mg Compound (A) with 80:20 propylene glycol:ethanol to provide a liquid oral dosage form at concentrations of 2.5 mg/mL to 12.5 mg/mL. The resulting liquid oral dosage form was then stored up to 20 hours at ambient temperature (20° C. to 25° C.) and room light and at refrigerated temperature (2° C. to 8° C.).
The change in total impurities was attributed to an increase of an oxazine impurity/degradant whose structure is depicted below: [drawing 10] Samples were analyzed using HPLC with a 75 mm×4.6 mm i.d., 3.5 :m particle sizeWaters Symmetry Shield RP8 column and with UV detection at 240 nm. 10 :L injection volumes were used, the column was maintained at ambient temperature and the flow rate was 1 mL/min. Analysis times were 1 hour and samples were eluted using gradient elution with a mobile phase of water (0.05% acetic acid) (mobil phase A) and a mobile phase of acetonitrile (0.05% acetic acid). The elution profile is described in the table below.

[3] = Stability of aqueous solution of Compound (A) (t95); type: physicochemical; details: 37° C.
Experimental: Certain epothilones including the preferred epothilone, Compound (A), are unstable in acidic aqueous environments and decompose, presumably by an acid catalyzed hydrolytic opening of the epoxide ring. For example, the time for 5% drug loss (t95) at 37° C. for an aqueous solution of Compound (A) is approximately 38 minutes at pH 7.4 but only about 0.2 minutes at pH 2.5. Thus, when epothilones of Formula (Ia) or (Ib), or a pharmaceutically acceptable salt, solvate, clathrate, hydrate, or prodrug thereof, are orally administered they decompose in the stomach of the patient such that they are either minimally absorbed or not absorbed by the gastrointestinal tract.

[4] = Pharmacokinetics in mice (IV and oral); type: in vivo, female CDF
Experimental: as §1
Compound (A) was administered intravenously (5 mg/kg) and orally (48 mg/kg) to female CDF, mice. For the IV route, Compound (A) was dissolved in 20% ethanol solution and was given as a bolus dose. For the oral route, solutions of Compound (A) were prepared as a 3:7 mixture of ethanol:phosphate buffered saline (0.25 M, pH 8.0) and administered by gavage. Plasma samples for determinating concentrations of Compound (A) were taken from 3 separate mice at 5, 15, and 45 min, and 2, 4, and 6 h after the IV dose, and at 15 and 45 min, and 2, 4, and 6 h after the oral dose.

rat liver microsomes = assay: Oxidative metabolism in rat liver microsomes; type: in vitro ADME; details: 40 :M, NADPH
Experimental: Upon incubation of Compound (A) (40 :M) with mouse, rat, dog, and human liver microsomes fortified with nicotinamide adenine dinucleotide phosphate (NADPH), the rate of oxidative metabolism of Compound (A) was 2.1, 0.7, 1.2 and 1.3 nmol/min/mg protein, respectively. Moreover, the metabolite distribution was similar among all species (metabolite masses included several […] and M−2 compounds). Qualitatively, there appeared to be similar production of metabolites of Compound (A) after incubation with rat or human hepatocytes compared to microsomal incubations. Products similar to those arising from the chemical degradation of Compound (A) appeared to be the major products in the hepatocyte incubations.

CYP2C9 = CYP2C9 (Homo sapiens, UniProt P11712); assay: Inhibition of recombinant human CYP2C9 (deethylation of 3-cyano-7-ethoxycoumarin); type: in vitro ADME; details: recombinant human CYP isoform
Experimental: The ability of Compound (A) to inhibit the major human cytochrome P450s (CYPs) responsible for the metabolism of drugs was evaluated in vitro using recombinant human CYP isoforms. IC50 values for inhibition of deethylation of 3-cyano-7-ethoxycoumarin (CYP1A2, CYP2C9, CYP2C19, and CYP2D6) and for inhibition of dealkylation of benzoyl-resorufin (CYP3A4) were determined.

[5] = Excretion in bile duct cannulated rats; type: in vivo, Sprague Dawley rats; details: intraarterial 10 mg/kg or oral 20 mg/kg, 9 h
Experimental: In another study, bile duct cannulated Sprague Dawley rats (n=2 per group) received a single intraterial (10 mg/kg) or oral (20 mg/kg) dose of Compound (A), and bile, urine, and plasma samples were collected over a period of 9 h after dose. There was negligible excretion of intact Compound (A) in the bile (C 1% of the dose). There was some detectable amount of Compound (A) in the urine, but actual concentrations were not quantified due to lack of stability data for Compound (A) in the urine. Several drug-related compounds in the urine and plasma were tentatively identified by LC/MS and included an isomer (M+0), and a hydrolysis product (M+18). In addition, a metabolite (M−2) was detected in the plasma.

CYP2C9, sequence (P11712 whole entry, canonical isoform): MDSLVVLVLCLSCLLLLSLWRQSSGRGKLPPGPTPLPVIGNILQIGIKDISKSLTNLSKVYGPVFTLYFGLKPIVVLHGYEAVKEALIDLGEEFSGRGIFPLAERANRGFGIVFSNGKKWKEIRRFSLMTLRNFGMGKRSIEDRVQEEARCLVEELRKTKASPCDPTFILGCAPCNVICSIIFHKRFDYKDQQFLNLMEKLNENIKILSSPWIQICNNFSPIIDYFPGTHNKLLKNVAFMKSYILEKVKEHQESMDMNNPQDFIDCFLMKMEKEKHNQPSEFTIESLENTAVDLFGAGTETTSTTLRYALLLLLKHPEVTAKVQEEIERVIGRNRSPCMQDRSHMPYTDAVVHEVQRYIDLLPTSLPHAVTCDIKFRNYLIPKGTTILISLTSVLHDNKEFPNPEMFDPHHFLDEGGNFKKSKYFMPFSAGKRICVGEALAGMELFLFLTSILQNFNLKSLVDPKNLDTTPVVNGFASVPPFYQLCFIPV

C/C(=C\c1csc(C)n1)[C@@H]1C[C@@H]2O[C@]2(C)CCC[C@H](C)[C@H](O)[C@@H](C)C(=O)C(C)(C)[C@@H](O)CC(=O)N1 (relative stereo) [Compound (A), [1S-[1R*,3R*(E),7R*,10S*,11R*,12R*,16S*]]-7,11-dihydroxy 8,8,10,12,16-pentamethyl-3-[1-methyl-2-(2-methyl-4-thiazolyl)ethenyl-4-aza-17-oxobicyclo[14.1.0]heptadecane-5,9-dione]
CLT (mean) ([1]; intraarterial 2 mg/kg): 56 mL/min/kg | VSS (mean) ([1]; intraarterial 2 mg/kg): 23 L/kg | mean T-HALF ([1]; intraarterial 2 mg/kg): 9.6 h | CLT as percent of liver blood flow ([1]; intraarterial 2 mg/kg, liver blood flow 56 mL/min/kg): 100% | Tmax ([1]; intraduodenal 8 mg/kg): 4.8 min | absolute oral bioavailability ([1]; intraduodenal 8 mg/kg): 27% | mean CMAX ([1]; intraduodenal 8 mg/kg): 642 ng/mL | Tmax ([1]; oral 8 mg/kg): 10.2 min | absolute oral bioavailability ([1]; oral 8 mg/kg): 7.5% | mean CMAX ([1]; oral 8 mg/kg): 228 ng/mL | can be stored for up to ([2]; ambient temperature): up to 6 hours | can be stored for up to ([2]; refrigerated temperature): up to 20 hours | total impurities/degradants and potency ([2]; ambient temperature (20° C. to 25° C.) and room light, 20 hours): increase in total impurities/degradants and a decrease in potency | total impurities/degradants ([2]; refrigerated temperature (2° C. to 8° C.), 20 hours): slight increase in total impurities/degradants | appearance of the liquid oral dosage form ([2]; up to 20 hours, either storage condition): No changes from initial | time for 5% drug loss (t95) ([3]; pH 2.5): about 0.2 minutes | time for 5% drug loss (t95) ([3]; pH 7.4): approximately 38 minutes | steady-state volume of distribution (VSS) ([4]; IV 5 mg/kg): 6.3 L/kg | terminal elimination half-life (T-HALF) ([4]; IV 5 mg/kg): approximately 3 h | CLT as percent of liver blood flow ([4]; IV 5 mg/kg, liver blood flow 90 mL/min/kg): 76% | systemic clearance or total body clearance (CLT) ([4]; IV bolus 5 mg/kg): 68 mL/min/kg | absolute oral bioavailability ([4]; oral 48 mg/kg vs IV 5 mg/kg): 31% | peak plasma concentration (CMAX) ([4]; oral 48 mg/kg, ethanol:phosphate buffered saline 3:7): 5983 ng/mL | rate of oxidative metabolism (rat liver microsomes): 0.7 nmol/min/mg protein | inhibition of CYP2C9 (CYP2C9): did not inhibit | excretion of intact Compound (A) in the bile [5]: < 1 % of the dose
